Source: US20250177555A1 (priority 2022, published 2025)

System: 293T cells
Type: cell-based

C=C(C)[C@@H]1CCC(C)=C[C@H]1c1c(O)cc(CCCCC)cc1O [CBD, cannabidiol]
production of gectosomes encapsulated Nluc cargo: induces an elevated production
